The text below walks through data of patent US20060281771A1, “SYNERGISTIC MODULATION OF FLT3 KINASE USING AMINOQUINOLINE AND AMINOQUINAZOLINE KINASE MODULATORS” (priority 2005, published 2006).

Assay [1] addresses T1, isolated kinase domain of the human FLT3 receptor (a.a. 571-993) (Homo sapiens, UniProt P36888).
T1 construct: human FLT3 receptor (a.a. 571-993)
T1 sequence (P36888 571-993): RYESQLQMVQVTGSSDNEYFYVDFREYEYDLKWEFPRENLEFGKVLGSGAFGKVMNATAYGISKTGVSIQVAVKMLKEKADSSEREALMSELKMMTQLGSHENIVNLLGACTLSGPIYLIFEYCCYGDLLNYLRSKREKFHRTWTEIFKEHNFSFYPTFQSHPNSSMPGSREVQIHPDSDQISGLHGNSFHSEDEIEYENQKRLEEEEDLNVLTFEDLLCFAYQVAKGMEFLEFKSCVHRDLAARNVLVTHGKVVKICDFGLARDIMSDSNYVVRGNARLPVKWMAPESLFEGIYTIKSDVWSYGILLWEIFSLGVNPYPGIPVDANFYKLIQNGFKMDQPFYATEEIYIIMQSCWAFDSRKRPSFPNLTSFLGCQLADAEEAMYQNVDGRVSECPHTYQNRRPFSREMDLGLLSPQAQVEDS
Put plainly: FLT3 fluorescence polarization kinase assay. Format: biochemical. The text has this: The FLT3 FP assay utilizes the fluorescein-labeled phosphopeptide and the anti-phosphotyrosine antibody included in the Panvera Phospho-Tyrosine Kinase Kit (Green) supplied by Invitrogen. When FLT3 phosphorylates polyGlu4Tyr, the fluorescein-labeled phosphopeptide is displaced from the anti-phosphotyrosine antibody by the phosphorylated poly Glu4Tyr, thus decreasing the FP value. […] The kinase reaction is stopped with the addition of EDTA. The fluorescein-labeled phosphopeptide and the anti-phosphotyrosine antibody are added and incubated for 30 minutes at room temperature.
All data points are an average of triplicate samples. Inhibition and IC50 data analysis was done with GraphPad Prism using a non-linear regression fit with a multiparamater, sigmoidal dose-response (variable slope) equation.
(Polarisation of emitted light reports the rotation of a fluorescent probe.)

A further assay concerns MV4-11 cells. Put plainly: Inhibition of MV4-11 cell proliferation (CellTiterGlo, 72 h). Format: cell-based. The following applies: Homo sapiens; 72 h growth inhibition. The procedure, abridged:
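MV4-11 (FLT3-ITD) cells, 10,000/well in RPMI/10% FBS with 1 ng/ml GM-CSF, treated 72 h at 37 °C; some runs in 1:1 medium/human plasma. Growth read as ATP luminescence; 100% inhibition = Day 0 RLU, 0% = DMSO at Day 3. IC50 from sigmoidal variable-slope fit of triplicates.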
(In general: Cellular ATP, detected with luciferase, serves as a proxy for viable cell number.)

In general, IC50 refers to the concentration that gives 50% inhibition.

Regarding `COc1cc2ncnc(N3CCC(OC(=O)Nc4ccc(C(C)C)cc4)CC3)c2cc1OC` [Compound 1, (4-Isopropyl-phenyl)-carbamic acid 1-(6,7-dimethoxy-quinazolin-4-yl)-piperidin-4-yl ester], the results for the IC50 (in assay [1]; in the assay on MV4-11 cells) were 0.006 µM and 0.181 µM, respectively.
Regarding `COc1cc2ncnc(N3CCC(OC(=O)Nc4ccc(C(C)C)cc4)C3)c2cc1OC` (stereo not shown) [Compound 2, (4-Isopropyl-phenyl)-carbamic acid 1-(6,7-dimethoxy-quinazolin-4-yl)-pyrrolidin-3-yl ester], the values for the IC50 (in assay [1]; in the assay with MV4-11 cells) were 0.007 µM and 0.248 µM, respectively.
On to `COc1cc2ncnc(N3CCC(OC(=O)Nc4ccc(OC(C)C)cc4)CC3)c2cc1OC` [Compound 3, (4-Isopropoxy-phenyl)-carbamic acid 1-(6,7-dimethoxy-quinazolin-4-yl)-piperidin-4-yl ester], for which the IC50 in assay [1] is 0.008 µM; with MV4-11 cells it was 0.467 µM.
As to `COc1cc2ncnc(N3CCCC(COC(=O)Nc4ccc(C(C)C)cc4)C3)c2cc1OC` (stereo not shown) [Compound 4], the 50% inhibitory concentration (IC50) came out at 0.011 µM in assay [1] and 0.086 µM with MV4-11 cells.
As to `COc1cc2ncnc(N3CCC(CC(=O)Nc4ccc(C(C)C)cc4)CC3)c2cc1OC` [Compound 5, 2-[1-(6,7-Dimethoxy-quinazolin-4-yl)-piperidin-4-yl]-N-(4-isopropyl-phenyl)-acetamide], the IC50 in assay [1] is 0.012 µM; in the assay with MV4-11 cells, 0.007 µM.
Taken in the same sequence, the figures for `COc1cc2ncnc(N3CCC(CC(=O)Nc4ccc(C(C)C)cc4)C3)c2cc1OC` (stereo not shown) [Compound 6, 2-[11-(6,7-Dimethoxy-quinazolin-4-yl)-pyrrolidin-3-yl]-N-(4-isopropyl-phenyl)-acetamide] were 0.014 µM and 0.008 µM.
Taken in the same sequence, the figures for `COc1cc2ncnc(N3CCC(NC(=O)Nc4ccc(C(C)C)cc4)C3)c2cc1OC` (stereo not shown) [Compound 7, 1-[1-(6,7-Dimethoxy-quinazolin-4-yl)-pyrrolidin-3-yl]-3-(4-isopropyl-phenyl)-urea] were 0.016 µM and 0.909 µM.
Take `COc1cc2ncnc(N3CCC(NC(=O)Nc4ccc(OC(C)C)cc4)C3)c2cc1OC` (stereo not shown) [Compound 8, 1-[1-(6,7-Dimethoxy-quinazolin-4-yl)-pyrrolidin-3-yl]-3-(4-isopropoxy-phenyl)-urea]: the IC50 was 0.023 µM in assay [1] and 1.88 µM in the assay on MV4-11 cells.
With `COc1cc2ncnc(N3CCCC3COC(=O)Nc3ccc(C(C)C)cc3)c2cc1OC` (stereo not shown) [Compound 9], the values for the IC50 (in assay [1]; in the assay with MV4-11 cells) were 0.025 µM and 0.196 µM, respectively.
For `COc1cc2ncnc(N3CCC(OC(=O)Nc4ccc(OC5CCC5)nc4)C3)c2cc1OC` (stereo not shown) [Compound 12, (6-Cyclobutoxy-pyridin-3-yl)-carbamic acid 1-(6,7-dimethoxy-quinazolin-4-yl)-pyrrolidin-3-yl ester] the same measures were 0.035 µM and 0.064 µM.
On to `COc1cc2ncnc(N3CCC(C(=O)Nc4ccc(C(C)C)cc4)CC3)c2cc1OC` [Compound 13, 1-(6,7-Dimethoxy-quinazolin-4-yl)-piperidine-4-carboxylic acid (4-isopropyl-phenyl)-amide], for which the IC50 in assay [1] amounted to 0.037 µM; with MV4-11 cells, 0.855 µM.
With `CC(C)c1ccc(NC(=O)OC2CCN(c3ncnc4ccc(C#CCO)cc34)C2)cc1` (stereo not shown) [Compound 14, (4-Isopropyl-phenyl)-carbamic acid 1-[6-(3-hydroxy-prop-1-ynyl)-quinazolin-4-yl]-pyrrolidin-3-yl ester], the IC50 in assay [1] worked out at 0.037 µM; in the assay on MV4-11 cells, 0.136 µM.
For the compound `COc1cc2ncnc(N3CCC(OC(=O)Nc4ccc(OC(C)C)cc4)C3)c2cc1OC` (stereo not shown) [Compound 15, (4-Isopropoxy-phenyl)-carbamic acid 1-(6,7-dimethoxy-quinazolin-4-yl)-pyrrolidin-3-yl ester], the IC50 in assay [1] came out at 0.042 µM; in the assay with MV4-11 cells, 0.866 µM.
On to `CC(C)c1ccc(NC(=O)NC2CCN(c3ncnc4ccccc34)C2)cc1` (stereo not shown) [Compound 16, 1-(4-Isopropyl-phenyl)-3-(1-quinazolin-4-yl-pyrrolidin-3-yl)urea], for which the IC50 in assay [1] was 0.045 µM; in the assay on MV4-11 cells, 0.278 µM.
Consider `CCN(CC)CC#Cc1ccc2ncnc(N3CCC(OC(=O)Nc4ccc(C(C)C)cc4)C3)c2c1` (stereo not shown) [Compound 17, (4-Isopropyl-phenyl)-3-carbamic acid 1-[6-(3-diethylamino-prop-1-ynyl)-quinazolin-4-yl]-pyrrolidin-3-yl ester], for which the concentration for half-maximal inhibition (IC50) in assay [1] was 0.063 µM; with MV4-11 cells it was 0.122 µM.
Taken in the same sequence, the figures for `COc1cc2ncnc(N3CCC(CNC(=O)Nc4ccc(C(C)C)cc4)CC3)c2cc1OC` [Compound 18, 1-[1-(6,7-Dimethoxy-quinazolin-4-yl)-piperidin-4-ylmethyl]-3-(4-isopropyl-phenyl)-urea] were 0.066 µM and 1.3 µM.
As for `COc1cc2ncnc(N3CCC(N(C)C(=O)Nc4ccc(C(C)C)cc4)C3)c2cc1OC` (stereo not shown) [Compound 19, 1-[1-(6,7-Dimethoxy-quinazolin-4-yl)-pyrrolidin-3-yl]-3-(4-isopropyl-phenyl)-1-methyl-urea], the results for the IC50 (in assay [1]; in the assay with MV4-11 cells) were 0.068 µM and 1.38 µM, respectively.
For `CC(C)c1ccc(NC(=O)OC2CCN(c3ncnc4ccc(I)cc34)C2)cc1` (stereo not shown) [Compound 20, (4-Isopropyl-phenyl)-carbamic acid 1-(6-iodo-quinazolin-4-yl)-pyrrolidin-3-yl ester] the same measures were 0.096 µM and 0.262 µM.
Take `COc1cc2ncnc(N3CCC(NC(=O)Cc4ccc(C(C)C)cc4)CC3)c2cc1OC` [Compound 21, N-[1-(6,7-Dimethoxy-quinazolin-4-yl)-piperidin-4-yl]-2-(4-isopropyl-phenyl)-acetamide]: the results for the IC50 (in assay [1]; in the assay with MV4-11 cells) were 0.15 µM and 0.078 µM, respectively.
`COc1cc2ncnc(N3CCC(C(=O)Nc4ccc(OC(C)C)cc4)CC3)c2cc1OC` [Compound 23, 1-(6,7-Dimethoxy-quinazolin-4-yl)-piperidine-4-carboxylic acid (4-isopropoxy-phenyl)-amide]: the IC50 in assay [1] was found to be 0.185 µM; in the assay on MV4-11 cells, 1.98 µM.
Taken in the same sequence, the figures for `COc1cc2ncc(C#N)c(N3CCC(NC(=O)Nc4ccc(C(C)C)cc4)C3)c2cc1OC` (stereo not shown) [Compound 26, 1-[1-(3-Cyano-6,7-dimethoxy-quinolin-4-yl)-pyrrolidin-3-yl]-3-(4-isopropyl-phenyl)-urea] were 0.433 µM and 1.9 µM.
In the case of `COc1cc2ncnc(N3CCCC(NC(=O)Nc4ccc(C(C)C)cc4)C3)c2cc1OC` (stereo not shown) [Compound 28, 1-[1-(6,7-Dimethoxy-quinazolin-4-yl)-piperidin-3-yl]-3-(4-isopropyl-phenyl)-urea], the IC50 in assay [1] is 0.51 µM; in the assay on MV4-11 cells it was 1.5 µM.
On to `COc1cc2ncc(C#N)c(N3CCC(NC(=O)Nc4ccc(OC(C)C)cc4)C3)c2cc1OC` (stereo not shown) [Compound 29, 1-[1-(3-Cyano-6,7-dimethoxy-quinolin-4-yl)-pyrrolidin-3-yl]-3-(4-isopropoxy-phenyl)-urea], for which the IC50 in assay [1] was found to be 0.531 µM; in the assay on MV4-11 cells it was 1.7 µM.
Turning to `COc1cc2ncnc(N3CCCC(OC(=O)Nc4ccc(C(C)C)cc4)C3)c2cc1OC` (stereo not shown) [Compound 31, (4-Isopropyl-phenyl)-carbamic acid 1-[1-(6,7-dimethoxy-quinazolin-4-yl)-piperidin-3-yl]ester], the IC50 was found to be 0.67 µM in assay [1] and 1.7 µM in the assay on MV4-11 cells.
`COc1cc2ncc(C#N)c(N3CCC(OC(=O)Nc4ccc(OC(C)C)cc4)C3)c2cc1OC` (stereo not shown) [Compound 32, (4-Isopropoxy-phenyl)-carbamic acid 1-(3-cyano-6,7-dimethoxy-quinolin-4-yl)-pyrrolidin-3-yl ester]: the IC50 in assay [1] was 0.868 µM; in the assay with MV4-11 cells, 1.4 µM.
For `COc1cc2ncnc(N3CCCCC3COC(=O)Nc3ccc(C(C)C)cc3)c2cc1OC` (stereo not shown) [Compound 33, (4-Isopropyl-phenyl)-carbamic acid 1-(6,7-dimethoxy-quinazolin-4-yl)-piperidin-2-ylmethyl ester], the values for the IC50 (in assay [1]; in the assay on MV4-11 cells) were 1 µM and 0.343 µM, respectively.
For `COc1cc2ncnc(N3CCC(NC(=O)Cc4ccc(C(C)C)cc4)C3)c2cc1OC` (stereo not shown) [Compound 35, N-[1-(6,7-Dimethoxy-quinazolin-4-yl)-pyrrolidin-3-yl]-2-(4-isopropyl-phenyl)-acetamide], the IC50 was found to be 1.3 µM in assay [1] and 1.9 µM in the assay with MV4-11 cells.
As for `COc1cc2ncnc(N3CCC(N(C)C(=O)Nc4ccc(OC(C)C)cc4)C3)c2cc1OC` (stereo not shown) [Compound 36, 1-[1-(6,7-Dimethoxy-quinazolin-4-yl)-pyrrolidin-3-yl]-3-(4-isopropoxy-phenyl)-1-methyl-urea], the IC50 came to 1.68 µM in assay [1] and 3.19 µM in the assay on MV4-11 cells.
`COc1cc2ncc(C#N)c(N3CCC(OC(=O)Nc4ccc(C(C)C)cc4)C3)c2cc1OC` (stereo not shown) [Compound 37, (4-Isopropyl-phenyl)-carbamic acid 1-(3-cyano-6,7-dimethoxy-quinolin-4-yl)-pyrrolidin-3-yl ester]: the IC50 in assay [1] worked out at 2.14 µM; with MV4-11 cells, 1.5 µM.
